{
  "source": "patent US20030180345A1",
  "about": "“Compositions and methods for inhibiting islet dysfunction and autoimmune disorders” (priority 2000, published 2003)",
  "key": {"NOD mice [1]": {"tested_on": "NOD mice", "experiment": "Gestational taurine supplementation in NOD mice: diabetes onset, insulitis and endocrine pancreas development", "type": "in vivo", "text": "Pregnant NOD mice (maintained as in Example 13) were supplemented with 2.5% of taurine in drinking water during gestation. Pups were either sacrificed at 14 days of age, and pancreata were collected and fixed for histology as depicted in FIG. 16, or followed until glucosurea was apparent."}, "fetal islets": {"tested_on": "fetal islets", "experiment": "Interaction of dietary and in vitro taurine on SNP- or IL1β-induced apoptosis of fetal islets", "type": "cell-based, Wistar rats", "method": "Animals and diets were prepared as described in Example 7. Pancreases were removed and islets were isolated from late gestation fetuses at day 21.5. Neoformed fetal islets obtained after five days of culture from the four diet groups (C, C+Taurine, LP, and LP+Taurine) were compared for their susceptibility to apoptosis following exposure to SNP (100 μmol/l), or IL1β (50 U/ml), with or without in vitro taurine at either physiological (0.3 mmol/l) or supraphysiological (3.0 mmol/l) levels."}, "fetal islet cells": {"tested_on": "fetal islet cells", "experiment": "IL1β-induced apoptosis in cultured fetal islets (TUNEL)", "type": "cell-based, Wistar rats", "conditions": "IL1β 50 U/ml", "method": "The effect of in vitro taurine on the effect of IL1β-induced apoptosis was assessed. Fetal islets were isolated as described above in Example 1. On the 5th day of culture, islets were rinsed twice with serum free DME/F12 medium (1:1, v/v, Gibco, Paisley, Scotland) and were incubated in this medium supplemented with taurine at 0.3 or 3 mmol/l for 48 hours. For the final 24 hours of this incubation, IL1β (Endogen, Woburn, Mass.) was added to the incubation medium at a level of 50 U/ml. Apoptosis was quantified by confocal microscopy using TUNEL method, as outlined in Example 1."}, "NOD mice [2]": {"tested_on": "NOD mice", "experiment": "Onset of diabetes (glucosurea) in female NOD offspring after maternal taurine supplementation", "type": "in vivo", "text": "Pregnant NOD mice were obtained and maintained on a control diet as described in Example 13. Pregnant mice were either supplemented with taurine in the drinking water (n=51) or were unsupplemented (n=37) throughout pregnancy. The supplemented group received taurine at a concentration of 2.5% (w/v) in drinking water. Considering the average amount of water consumed, this is equivalent to a taurine consumption of about 0.75 g/day per animal. Taurine supplementation ceased post-partum, and offspring were allowed to nurse for 21 days. […] Onset of diabetes was determined by the appearance of glucosurea which was assessed using glucose detection sticks."}, "VEGF": {"tested_on": "VEGF", "experiment": "Pancreatic VEGF immunoreactivity with dietary taurine supplementation", "type": "in vivo, Wistar rats", "conditions": "decrease by low protein diet; regardless of developmental stage", "method": "(§1) Animals and diets were prepared as described in Example 8. The pancreas was removed, and the presence of Fas, Fas ligand, inducible nitric oxide synthase (iNOS) and vascular endothelial growth factor (VEGF) were evaluated in pancreatic sections using immunoreactivity."}, "Fas": {"tested_on": "Fas", "experiment": "Islet Fas immunoreactivity with dietary taurine supplementation", "type": "in vivo, Wistar rats", "conditions": "post-natal day 14", "method": "as §1"}, "fetal islet β cells": {"tested_on": "fetal islet β cells", "experiment": "Global cell death / mortality of cultured fetal islets (ethidium bromide permeability)", "type": "cell-based", "conditions": "SNP (100 μmol/l); pre-treated with taurine 0.3 or 3 mmol/l; both diet groups; dose dependent", "method": "Global cell death. Global cell death was analysed using a non-specific staining permeant probe. For this purpose, the culture medium was removed and the dishes were incubated in the dark with 1 ml of 20 μg/ml ethidium bromide for 20 min to stain permeabilized dead cells. The cultures were then fixed with 4% paraformaldehyde in PBS for 10 min, treated with 30% methanol for permeabilization of the remaining of the cells and then mounted in mowiol containing 20 μg/ml of Hoechst 33342, to stain the nuclei.\nPhysiological and supraphysiological levels of each amino acid were tested. Taurine, if present was either 0.3 mmol/l (physiological) or 3 mmol/l (supraphysiological); methionine, if present was either 0.1 mmol/l (physiological) or 1 mmol/l (supraphysiological); and β-alanine, if present was either 0.3 mmol/l (physiological) or 3 mmol/l (supraphysiological). Supplemental amino acid levels were maintained in the culture medium during SNP treatment. […] Apoptosis was quantified by confocal microscopy using the TUNEL method described in Example 1. Mortality rate was quantified by confocal microscopy using permeant probes, as described in Example 1, to verify quantification of apoptotic rate for both C and LP diet treatments including SNP and taurine."}, "iNOS": {"tested_on": "iNOS", "experiment": "Islet iNOS immunoreactivity with dietary taurine supplementation", "type": "in vivo, Wistar rats", "conditions": "all stages", "method": "as §1"}, "islet cells [3]": {"tested_on": "islet cells", "experiment": "Islet cell proliferation with maternal dietary taurine supplementation (BrdU immunostaining)", "type": "in vivo, Wistar rats", "method": "Adult virgin female Wistar rats were caged overnight with males and copulation was verified the next morning. Animals were maintained at 25° C. with a 10 h-14 h dark-light cycle. Pregnant rats were divided into four groups and fed one of the following isocaloric diets, either with or without taurine supplemented in the drinking water. […] The composition of the basal and low protein diets were described previously by Snoeck et a/.1990 (Biol. Neonate 57, 107-118). The diets were purchased from Hope Farms (Woerden, Holland). Animals in both the groups had free access to water at all times. Animals were divided into four groups to assess various parameters at different time periods. Females were sacrificed at 21.5 days of gestation by decapitation and fetuses were removed in order to evaluate parameters at fetal day 21.5 (F 21.5). Alternatively, animals gave birth and offspring were sacrificed at post-natal day 12, 14 or 30 (PN 12, PN 14, and PN 30, respectively). Bromodeoxyuridine (BrdU) incorporation was evaluated by immunostaining as described by […] et al., (Endocrinology 1999;140: 4861-4873)."}, "islet cells [4]": {"tested_on": "islet cells", "experiment": "Islet cell apoptosis with maternal dietary taurine supplementation (TUNEL)", "type": "in vivo, Wistar rats", "method": "Animals and diets were prepared, and taurine supplementation in drinking water was conducted as described in Example 7. Islet cells were cultured and treated as described in Example 1. Islet cell apoptosis was determined using the TUNEL method, as described by […] et al., (Endocrinology 1999;140: 4861-4873). Four developmental stages were evaluated, namely: fetal day 21.5 ([…].5) or post-natal day 12 (PN12), 14 (PN14) or 30 (PN30)."}},
  "note": "Entries after “also recorded” stand apart in the source; their conditions may differ.",
  "data": [
    {"smiles": "NCCS(=O)(=O)O", "note": "[taurine, 2-aminoethylsulfonic acid]", "values": [
      {"measurement": "proportion of IGF-II-immunoreactive islet cells", "setting": "NOD mice [1]; 14 days of age, p<0.01", "result": "greater proportion"},
      {"measurement": "mean islet area", "setting": "NOD mice [1]; 14 days of age, p<0.05", "result": "significantly smaller"},
      {"measurement": "proportion of proliferating islet cells", "setting": "NOD mice [1]; 14 days of age, p<0.05", "result": "greater proportion"},
      {"measurement": "number of apoptotic cells in islets", "setting": "NOD mice [1]; NOD female mice, 14 days of age, vs control animals", "result": "reduced nearly in half; also recorded: less apoptotic cells"},
      {"measurement": "survival", "setting": "NOD mice [1]; female and male NOD mice, Log Rank and Wilcoxon tests", "result": "improved survival"},
      {"measurement": "reduction of insulitis", "setting": "NOD mice [1]; insulitis appearing at 8 weeks, 2.5% taurine in drinking water during gestation", "result": 90, "unit": "%"},
      {"measurement": "insulin/glucagon ratio", "setting": "NOD mice [1]; small islets, NOD female mice", "result": "No difference"},
      {"measurement": "percentage of PCNA positive cells (cell proliferation)", "setting": "NOD mice [1]; small islets, NOD female mice", "result": "significant increase"},
      {"measurement": "percentage of area stained for glucagon (alpha cells)", "setting": "NOD mice [1]; small islets, NOD female mice", "result": "significantly increased"},
      {"measurement": "percentage of area stained for insulin (β mass)", "setting": "NOD mice [1]; small islets, NOD female mice", "result": "significant increase"},
      {"measurement": "age by which 50% of mice became diabetic", "setting": "NOD mice [1]; taurine treatment n=51, controls 16 weeks, p<0.001", "result": 26, "unit": "weeks"},
      {"measurement": "increased apoptotic response of LP fetal islets to SNP or IL1β", "setting": "fetal islets; co-incubation with taurine in vitro (0.3 or 3.0 mmol/l)", "result": "reversed"},
      {"measurement": "SNP-induced and IL 1β-induced apoptosis in fetal islets", "setting": "fetal islets; dietary taurine in low protein diet combined with high local taurine in vitro", "result": "synergistically decrease"},
      {"measurement": "increased apoptotic response of LP fetal islets to SNP or IL1β", "setting": "fetal islets; maternal supplementation with taurine in vivo", "result": "reversed"},
      {"measurement": "rate of IL1β-induced apoptosis in islet cells", "setting": "fetal islet cells; C diet group, only the high dose of taurine (3 mmol/l)", "result": "decreased significantly"},
      {"measurement": "number of islet cells positive for IL1β-induced apoptosis", "setting": "fetal islet cells; LP diet group, taurine 0.3 mmol/l and 3.0 mmol/l", "result": "significantly decreased"},
      {"measurement": "proportion of female offspring showing diabetes", "setting": "NOD mice [2]; at 25 weeks, maternal taurine 2.5% (w/v) in drinking water during pregnancy", "result": "about half"},
      {"measurement": "proportion of taurine-supplemented group still not diabetic", "setting": "NOD mice [2]; at 50 weeks", "result": "about 10%"},
      {"measurement": "VEGF immunoreactivity in the pancreas", "setting": "VEGF", "result": "reverses the effect"},
      {"measurement": "immunoreactive Fas within islets", "setting": "Fas", "result": "reduced"},
      {"measurement": "mortality after treatment with SNP, percentage of cell death", "setting": "fetal islet β cells", "result": "significantly diminished"},
      {"measurement": "iNOS immunoreactivity", "setting": "iNOS", "result": "no effect"},
      {"measurement": "β cell proliferation rate (BrdU incorporation)", "setting": "islet cells [3]; C+Taurine, 2.5% taurine in maternal drinking water", "result": "did not significantly increase"},
      {"measurement": "islet cell proliferation rate (BrdU incorporation)", "setting": "islet cells [3]; LP+Taurine, 2.5% (weight/volume) taurine in maternal drinking water", "result": "restore the proliferation rate to a level not significantly different from the control diet"},
      {"measurement": "islet cell apoptosis", "setting": "islet cells [4]; LP+Taurine vs control group (C), F21.5, PN12, PN14, PN30", "result": "either no difference, or a reduction in apoptosis compared to the control group"},
      {"measurement": "islet cell apoptosis", "setting": "islet cells [4]; protein-sufficient (C) animals supplemented with taurine, post-natal days 12 and 14", "result": "reduction in apoptosis"}
    ]}
  ]
}
